Test results: ChEMBL document CHEMBL2440080, “Synthesis and biological evaluation of novel acylhydrazone derivatives as potential antitumor agents” (Bioorg Med Chem, 2013)

Key:
Assay type in all cases: functional
RXF 393 = assay: Cytotoxicity against human RXF393 cells after 48 hrs by sulforhodamine B assay; settings: RXF 393, 48 h
SK-MEL-5 = assay: Cytotoxicity against human SK-MEL-5 cells after 48 hrs by sulforhodamine B assay; settings: SK-MEL-5, 48 h
DU-145 = assay: Cytotoxicity against human DU145 cells after 48 hrs by sulforhodamine B assay; settings: DU-145, 48 h
SF-268 = assay: Cytotoxicity against human SF268 cells after 48 hrs by sulforhodamine B assay; settings: SF-268, 48 h
HCT-15 = assay: Cytotoxicity against human HCT15 cells after 48 hrs by sulforhodamine B assay; settings: HCT-15, 48 h
BT-549 = assay: Cytotoxicity against human BT549 cells after 48 hrs by sulforhodamine B assay; settings: BT-549, 48 h
SF-539 = assay: Cytotoxicity against human SF539 cells after 48 hrs by sulforhodamine B assay; settings: SF-539, 48 h
LOX IMVI = assay: Cytotoxicity against human LOXIMVI cells after 48 hrs by sulforhodamine B assay
HT-29 = assay: Cytotoxicity against human HT-29 cells after 48 hrs by sulforhodamine B assay; settings: HT-29, 48 h
[1] = Cytotoxicity against human EKVX cells after 48 hrs by sulforhodamine B assay
A498 = assay: Cytotoxicity against human A498 cells after 48 hrs by sulforhodamine B assay; settings: A498, 48 h
OVCAR-5 = assay: Cytotoxicity against human OVCAR5 cells after 48 hrs by sulforhodamine B assay; settings: OVCAR-5, 48 h
Malme-3M = assay: Cytotoxicity against human MALME-3M cells after 48 hrs by sulforhodamine B assay
UACC-257 = assay: Cytotoxicity against human UACC257 cells after 48 hrs by sulforhodamine B assay; settings: UACC-257, 48 h
SN12C = assay: Cytotoxicity against human SN12C cells after 48 hrs by sulforhodamine B assay
OVCAR-8 = assay: Cytotoxicity against human OVCAR8 cells after 48 hrs by sulforhodamine B assay; settings: OVCAR-8, 48 h
IGROV-1 = assay: Cytotoxicity against human IGROV1 cells after 48 hrs by sulforhodamine B assay; settings: IGROV-1, 48 h
UACC-62 = assay: Cytotoxicity against human UACC62 cells after 48 hrs by sulforhodamine B assay; settings: UACC-62, 48 h
SK-OV-3 = assay: Cytotoxicity against human SKOV3 cells after 48 hrs by sulforhodamine B assay; settings: SK-OV-3, 48 h
TK-10 = assay: Cytotoxicity against human TK10 cells after 48 hrs by sulforhodamine B assay; settings: TK-10, 48 h
OVCAR-3 = assay: Cytotoxicity against human OVCAR3 cells after 48 hrs by sulforhodamine B assay; settings: OVCAR-3, 48 h
UO-31 = assay: Cytotoxicity against human UO31 cells after 48 hrs by sulforhodamine B assay; settings: UO-31, 48 h
OVCAR-4 = assay: Cytotoxicity against human OVCAR4 cells after 48 hrs by sulforhodamine B assay; settings: OVCAR-4, 48 h
786-0 = assay: Cytotoxicity against human 786-0 cells after 48 hrs by sulforhodamine B assay; settings: 786-0, 48 h
MCF7 = assay: Cytotoxicity against human MCF7 cells after 48 hrs by sulforhodamine B assay; settings: MCF7, 48 h
[2] = Cytotoxicity against human Hs 578T cells after 48 hrs by sulforhodamine B assay
SF-295 = assay: Cytotoxicity against human SF295 cells after 48 hrs by sulforhodamine B assay; settings: SF-295, 48 h
K562 = assay: Cytotoxicity against human K562 cells after 48 hrs by sulforhodamine B assay; settings: K562, 48 h
KM12 = assay: Cytotoxicity against human KM12 cells after 48 hrs by sulforhodamine B assay; settings: KM12, 48 h
NCI-H23 = assay: Cytotoxicity against human NCI-H23 cells after 48 hrs by sulforhodamine B assay; settings: NCI-H23, 48 h
CAKI-1 = assay: Cytotoxicity against human CAKI-1 cells after 48 hrs by sulforhodamine B assay; settings: CAKI-1, 48 h
NCI-H522 = assay: Cytotoxicity against human NCI-H522 cells after 48 hrs by sulforhodamine B assay; settings: NCI-H522, 48 h
A549 = assay: Cytotoxicity against human A549/ATCC cells after 48 hrs by sulforhodamine B assay; settings: A549, 48 h
T47D = assay: Cytotoxicity against human T47D cells after 48 hrs by sulforhodamine B assay
SW-620 = assay: Cytotoxicity against human SW620 cells after 48 hrs by sulforhodamine B assay; settings: SW-620, 48 h
CCRF-CEM = assay: Cytotoxicity against human CCRF-CEM cells after 48 hrs by sulforhodamine B assay
SNB-75 = assay: Cytotoxicity against human SNB75 cells after 48 hrs by sulforhodamine B assay; settings: SNB-75, 48 h
SR = assay: Cytotoxicity against human SR cells after 48 hrs by sulforhodamine B assay
PC-3 = assay: Cytotoxicity against human PC3 cells after 48 hrs by sulforhodamine B assay; settings: PC-3, 48 h
M14 = assay: Cytotoxicity against human M14 cells after 48 hrs by sulforhodamine B assay; settings: M14, 48 h
HCT-116 = assay: Cytotoxicity against human HCT116 cells after 48 hrs by sulforhodamine B assay; settings: HCT-116, 48 h
NCI-H460 = assay: Cytotoxicity against human NCI-H460 cells after 48 hrs by sulforhodamine B assay; settings: NCI-H460, 48 h
SK-MEL-28 = assay: Cytotoxicity against human SK-MEL-28 cells after 48 hrs by sulforhodamine B assay; settings: SK-MEL-28, 48 h
HOP-92 = assay: Cytotoxicity against human HOP92 cells after 48 hrs by sulforhodamine B assay; settings: HOP-92, 48 h
MDA-MB-231 = assay: Cytotoxicity against human MDA-MB-231 cells after 48 hrs by sulforhodamine B assay; settings: MDA-MB-231, 48 h
COLO 205 = assay: Cytotoxicity against human COLO205 cells after 48 hrs by sulforhodamine B assay; settings: COLO 205, 48 h
ACHN = assay: Cytotoxicity against human ACHN cells after 48 hrs by sulforhodamine B assay
HL-60(TB) = assay: Cytotoxicity against human HL-60(TB) cells after 48 hrs by sulforhodamine B assay; settings: HL-60, 48 h
MOLT-4 = assay: Cytotoxicity against human MOLT4 cells after 48 hrs by sulforhodamine B assay; settings: MOLT-4, 48 h
NCI-H322M = assay: Cytotoxicity against human NCI-H322M cells after 48 hrs by sulforhodamine B assay
SNB-19 = assay: Cytotoxicity against human SNB19 cells after 48 hrs by sulforhodamine B assay; settings: SNB-19, 48 h
U-251 = assay: Cytotoxicity against human U251 cells after 48 hrs by sulforhodamine B assay; settings: U-251, 48 h
MDA-MB-435 = assay: Cytotoxicity against human MDA-MB-435 cells after 48 hrs by sulforhodamine B assay; settings: MDA-MB-435, 48 h
NCI/ADR-RES = assay: Cytotoxicity against human NCI/ADR-RES cells after 48 hrs by sulforhodamine B assay
HCC 2998 = assay: Cytotoxicity against human HCC2998 cells after 48 hrs by sulforhodamine B assay; settings: HCC 2998, 48 h
HOP-62 = assay: Cytotoxicity against human HOP62 cells after 48 hrs by sulforhodamine B assay; settings: HOP-62, 48 h
SK-MEL-2 = assay: Cytotoxicity against human SK-MEL-2 cells after 48 hrs by sulforhodamine B assay; settings: SK-MEL-2, 48 h
NCI-H226 = assay: Cytotoxicity against human NCI-H226 cells after 48 hrs by sulforhodamine B assay; settings: NCI-H226, 48 h
MDA-MB-468 = assay: Cytotoxicity against human MDA-MB-468 cells after 48 hrs by sulforhodamine B assay; settings: MDA-MB-468, 48 h

`CCN(CC)c1ccc(/C=N/NC(=O)Cc2ccc(Nc3ccnc(C(F)(F)F)c3)cc2)c(O)c1` showed a GI50 (RXF 393) of 1000 nM, a GI50 (SK-MEL-5) of 309 nM and a GI50 (DU-145) of 813 nM. It also gave a GI50 (SF-268) of 537 nM, a GI50 (HCT-15) of 407 nM and a GI50 (BT-549) of 1350 nM. The GI50 (SF-539) was 479 nM, the GI50 (LOX IMVI) was 398 nM and the GI50 (HT-29) was 676 nM. The GI50 [1] was 398 nM, the GI50 (A498) was 5010 nM and the GI50 (OVCAR-5) was 776 nM. It also gave a GI50 (Malme-3M) of 1000 nM, a GI50 (UACC-257) of 1910 nM and a GI50 (SN12C) of 977 nM. For the same compound, the GI50 (OVCAR-8) was 501 nM, the GI50 (IGROV-1) was 501 nM and the GI50 (UACC-62) was 398 nM. The GI50 (SK-OV-3) was 363 nM, the GI50 (TK-10) was 417 nM and the GI50 (OVCAR-3) was 794 nM. For the same compound, the GI50 (UO-31) was 389 nM, the GI50 (OVCAR-4) was 513 nM and the GI50 (786-0) was 437 nM. For the same compound, the GI50 (MCF7) was 407 nM, the GI50 [2] was 2190 nM and the GI50 (SF-295) was 501 nM. For the same compound, the GI50 (K562) was 550 nM, the GI50 (KM12) was 676 nM and the GI50 (NCI-H23) was 1050 nM. It also gave a GI50 (CAKI-1) of 398 nM, a GI50 (NCI-H522) of 575 nM and a GI50 (A549) of 832 nM. For the same compound, the GI50 (T47D) was 631 nM, the GI50 (SW-620) was 813 nM and the GI50 (CCRF-CEM) was 316 nM. It also gave a GI50 (SNB-75) of 2510 nM, a GI50 (SR) of 251 nM and a GI50 (PC-3) of 2000 nM. The GI50 (M14) was 525 nM, the GI50 (HCT-116) was 398 nM and the GI50 (NCI-H460) was 316 nM. For the same compound, the GI50 (SK-MEL-28) was 813 nM, the GI50 (HOP-92) was 1740 nM and the GI50 (MDA-MB-231) was 1120 nM. For the same compound, the GI50 (COLO 205) was 437 nM, the GI50 (ACHN) was 398 nM and the GI50 (HL-60(TB)) was 339 nM. The GI50 (MOLT-4) was 501 nM, the GI50 (NCI-H322M) was 398 nM and the GI50 (SNB-19) was 525 nM. The GI50 (U-251) was 501 nM, the GI50 (MDA-MB-435) was 912 nM and the GI50 (NCI/ADR-RES) was 537 nM. It also gave a GI50 (HCC 2998) of 646 nM, a GI50 (HOP-62) of 501 nM and a GI50 (SK-MEL-2) of 4900 nM. It also gave a GI50 (NCI-H226) of 676 nM and a GI50 (MDA-MB-468) of 389 nM.
